Values after ≈ are worked out from the molar mass of the structure shown.
How the values were obtained:
[1] = Stability in human liver microsomes; format: in vitro ADME; conditions: after 1 hr
Protocol: The stability of erastin in mouse and human liver microsomes and in mouse and human plasma was assessed. In both human and mouse liver microsomes, after 1 hr, ˜30% of erastin was converted to its primary metabolite (the O-de-ethylated product). In both human and mouse plasma, only ˜10% of erastin was lost after five hours. Thus, erastin has sufficient metabolic and plasma stability to be tested in vivo in mice.

[2] = tested on: BJ-DRD cells; assay: Alamar Blue viability assay; format: cell-based; conditions: Homo sapiens; BJ-DRD (+RAS)
Description: The engineered tumor cells make use of dominantly acting viral oncoproteins (LT and ST). These viral proteins are involved in cell transformation in specific forms of cancer, namely simian virus 40-induced malignant mesothelioma^134 and other viral oncogenes (E6 and E7) are involved in human papillomavirus-induced cervical carcinoma^135, and have been used to disrupt p53 and pRB function to transform cells in vitro and in vivo^136-138. The selectivity of erastin and the other compounds were further established in a cell line expressing dominant negative inhibitors of p53 and pRB not derived from viral elements. This cell line expresses (i) a truncated form of p53 (p53DD) that disrupts the tetramerization of endogenous p53, (ii) a CDK4^R24C mutant resistant to inhibition by p16INK4A and p15INK4B (the major negative regulators of CDK4) and (iii) cyclin D1. The effects of these RAS^V12-selective compounds at a range of concentrations were tested in these cells, BJ-TERT/p53^DD/CDK4^R24C/D1/ST/RAS^V12 (named BJ-DRD) cells. […] Thus, these compounds (including erastin) are effective in tumor cells transformed without viral proteins (other than ST).
(§1) Alamar Blue metabolism: 10% Alamar Blue was added to assay plates, which were then incubated for an additional 16 hours. Red fluorescence, resulting from reduction of Alamar Blue, was detected on a Victor3 platereader (ex: 530, em: 590).
Table 2. […]

[3] = tested on: BJ-TERT/LT/ST/RAS^V12 cells; assay: Alamar Blue viability assay; format: cell-based, human
Protocol: (a) Calu-1 lung carcinoma cells harboring oncogenic KRAS were infected with lentivirus containing shRNAs targeting KRAS or GFP. Sequences of shRNAs are indicated by starting nucleotide (nt) in the KRAS mRNA coding sequence. Cells were treated with erastin and viability measured by Trypan Blue exclusion. (b) Knockdown of KRAS was confirmed by western blot. (c,d) A673 cells harboring oncogenic BRAF were infected with lentiviral shRNAs targeting BRAF exon 5 (c) or the 5′ UTR (d), luciferase (LUC) (c) or GFP (d). Cells were treated with erastin and viability measured using Alamar Blue (c) and Trypan Blue (d). (e) Knockdown of BRAF was confirmed by western blot. […] BJ-TERT/LT/ST/RAS^V12 cells were treated with erastin alone or in with a MEK inhibitor U0126 (20 μM), MEK inhibitor I (10 μM) or MEK 1/2 inhibitor (50 μM). After 48 h, viability was determined using Trypan Blue. (g) Structures of certain erastin and related analogs. (h) and (i) Dose-response curves were measured for erastin A3 and erastin B2 in BJ-TERT/LT/ST/RAS^V12 cells (black squares) or BJ-TERT cells (grey circles). (j) Calu-1 lung carcinoma cells harboring oncogenic KRAS were infected with lentivirus containing shRNAs targeting KRAS or GFP. Sequences of shRNAs are indicated by starting nucleotide (nt) in the KRAS mRNA coding sequence. Cells were treated with erastin and viability (y-axis) measured by Trypan Blue exclusion. Cells were treated with erastin for 24 hours, and percent inhibition of viability (y-axis) measured using Alamar Blue (k) and Trypan Blue (l). (m) Structures of erastin and related analogs. (n) Dose-response curves were measured for erastin A6, erastin B2, erastin A8 and erastin A9 in BJ-TERT/LT/ST/RAS^V12 cells (squares) or BJ-TERT cells (circles) using Alamar Blue.
as §1
Table 2. Activity of RAS-selective lethal compound erastin in tumor cell lines. IC50 values (ng/mL) are shown using the Alamar Blue viability assay. BJ engineered tumor cells express TERT, LT, ST, and oncogenic RAS. Isogenic RAS^V12 lacking cells are identical but lack HRAS^V12. BJ-DRD cells are derived from BJ cells and contain TERT, oncogenic RAS, a truncated from of p53 (p53DD) that disrupts the tetramerization of endogenous p53, a CDK4(R24C) mutant resistant to inhibition by p16INK4A and p151NK4B (the major negative regulators of CDK4) and cyclin D1. These latter protein substitute for LT. HCT-116, A549, Calu-1, and MIA PaCa-2 are tumor cells derived from cancers (colon, lung, lung and pancreatic, respectively) known to have activating mutations in RAS.

[4] = tested on: BJ-TERT/LT/ST/RAS^V12 cells; assay: Mitochondrial membrane potential (JC-1 stain); format: cell-based, human; conditions: after 13 hours of treatment
Protocol: In certain embodiments, there is loss of mitochondrial membrane potential in >70% of BJ-TERT/LT/ST/RAS^V12 cells after 13 hours of erastin A1 treatment (JC-1 stain), and morphological changes in mitochondria examined by EM, consistent with the notion that erastin induces mitochondrial dysfunction.

[5] = tested on: BJELR cells; assay: Erastin sensitivity after upregulation of VDAC proteins by nucleofection; format: cell-based, human
Description: Quantitative western blot showing the ratio of VDACs (top band, green) to eif4E (bottom band, red) (e). […] Green, untransfected BJELR cells; blue, mock nucleofected BJELR cells; red, VDAC2/3-nucleofected BJELR cells (f).
In certain aspects, the invention provides that erastin acts by a gain-of-function mechanism and that cells with more VDAC proteins are more sensitive to erastin. A gain-of-function mechanism operates in cells which have increased levels of topoisomerase I and are thus more sensitive to camptothecin^149. […] In other embodiments, cell lines can be stably transfected with vectors expressing VDAC1, 2, and/or 3. Thus, increased VDAC expression leads to erastin sensitivity which is consistent with a gain of function mechanism. Furthermore, a knockdown of VDACs causes erastin resistance.

## CCOc1ccccc1-n1c(C(C)N2CCN(C(=O)COc3ccc(Cl)cc3)CC2)nc2ccccc2c1=O (stereo not drawn) [erastin, 2-(1-{4-[2-(4-Chloro-phenoxy)-acetyl]-piperazin-1-yl}-ethyl)-3-(2-ethoxy-phenyl)-3H-quinazolin-4-one]
[1]
  converted to primary metabolite (O-de-ethylated product): ~30%
[2]
  IC50: 2.5 µg/mL (≈ 4.57 µM)
[3]; HRAS^V12-expressing versus HRAS^V12-deficient cells
  RAS-selective lethality: at least 16 fold
[3]; IC50 in BJ-TERT/LT/ST versus BJ-TERT/LT/ST/RAS^V12
  RAS selectivity: >16
[4]
  cells with loss of mitochondrial membrane potential: > 70%
[5]
  Increase in sensitivity to erastin: about two to three-fold
